Assay results as given in patent US9115134B2, “6-triazolopyridazine sulfanyl benzothiazole derivatives as MET inhibitors” (SANOFI, priority 2007, dated 2015).

Assays:
MET [1] = molecular target: T1, MET (Homo sapiens, UniProt P08581); experiment: Test B: Inhibition of the autophosphorylation of MET; ELISA technique (pppY1230,1234,1235) in MKN45 cells; format: cell-based; design: Seed MKN45 cells into 96-well plates (Cell coat BD polylysine) at 20 000 cells/well; endogenous in cells; host or cells: MKN45 cells; settings: 1 h treatment, PhosphoMET ELISA
Outline: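 Adhered cells treated 1 h with six compound concentrations in duplicate, final 10 000 to 30 nM, against DMSO controls. Cells then lysed at 4° C for 30 min in Triton/SDS/deoxycholate buffer with phosphatase inhibitors. Phospho-MET measured by sandwich ELISA with anti-phospho MET antibody and HRP detection, absorbance at 450 nm.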
Target sequence in this assay (P08581 25-1390): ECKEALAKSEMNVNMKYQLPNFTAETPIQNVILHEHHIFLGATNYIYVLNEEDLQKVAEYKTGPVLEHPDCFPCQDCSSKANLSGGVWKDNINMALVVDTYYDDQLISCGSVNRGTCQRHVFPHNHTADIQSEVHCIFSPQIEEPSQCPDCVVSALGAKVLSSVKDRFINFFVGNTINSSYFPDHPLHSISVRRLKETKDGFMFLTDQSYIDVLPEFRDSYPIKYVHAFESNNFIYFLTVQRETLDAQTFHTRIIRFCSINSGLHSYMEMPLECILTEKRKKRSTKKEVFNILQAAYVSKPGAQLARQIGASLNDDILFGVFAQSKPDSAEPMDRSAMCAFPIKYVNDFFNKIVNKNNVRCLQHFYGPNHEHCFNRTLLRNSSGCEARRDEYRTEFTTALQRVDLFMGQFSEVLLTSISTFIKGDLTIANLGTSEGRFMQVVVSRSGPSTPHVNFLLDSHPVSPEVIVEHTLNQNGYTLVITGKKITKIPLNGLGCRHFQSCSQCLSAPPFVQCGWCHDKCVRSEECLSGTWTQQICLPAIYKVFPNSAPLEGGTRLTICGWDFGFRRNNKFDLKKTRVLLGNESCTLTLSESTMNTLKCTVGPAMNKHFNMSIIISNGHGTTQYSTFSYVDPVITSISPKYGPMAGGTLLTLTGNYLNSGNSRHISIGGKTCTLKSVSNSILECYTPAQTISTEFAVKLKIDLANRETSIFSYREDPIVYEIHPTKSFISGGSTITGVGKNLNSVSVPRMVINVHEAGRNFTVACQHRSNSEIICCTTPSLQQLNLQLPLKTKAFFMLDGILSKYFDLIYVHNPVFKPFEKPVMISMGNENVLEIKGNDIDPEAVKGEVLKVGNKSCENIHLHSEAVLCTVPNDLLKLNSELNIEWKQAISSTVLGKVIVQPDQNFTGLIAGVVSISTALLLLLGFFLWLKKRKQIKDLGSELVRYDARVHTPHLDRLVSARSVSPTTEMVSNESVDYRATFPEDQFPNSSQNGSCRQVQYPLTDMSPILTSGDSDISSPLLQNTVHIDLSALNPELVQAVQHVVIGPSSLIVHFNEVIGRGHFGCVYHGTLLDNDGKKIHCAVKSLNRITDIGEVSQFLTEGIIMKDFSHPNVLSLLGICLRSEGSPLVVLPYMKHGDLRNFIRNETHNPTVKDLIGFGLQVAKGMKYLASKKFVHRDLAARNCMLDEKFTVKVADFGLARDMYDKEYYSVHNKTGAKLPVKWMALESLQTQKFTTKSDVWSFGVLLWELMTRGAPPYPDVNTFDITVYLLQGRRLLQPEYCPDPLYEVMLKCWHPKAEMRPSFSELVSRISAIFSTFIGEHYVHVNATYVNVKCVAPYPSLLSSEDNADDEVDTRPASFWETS

[2] = tested on: HCT116 cells, MKN45 cells; experiment: Test C: Measurement of cell proliferation by 14C-thymidine pulse; format: cell-based; settings: 14C-thymidine incorporation, 96 h of treatment; cell line not given
Outline: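 HCT116 (2500/well, DMEM) and MKN45 (7500/well, RPMI), both with 10% FCS, treated after 4 h with 10 concentrations from 10 000 to 0.3 nM (3-fold, duplicate). ¹⁴C-thymidine (0.1 μCi/well) added at 72 h; incorporation read after 24 h pulse, 96 h total treatment.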

MET [3] = molecular target: T1, MET; experiment: Test A: HTRF MET assay in 96-well format; format: biochemical; design: The His-Tev-MET (956-1390) recombinant DNA in pFastBac (Invitrogen) is transfected into insect cells; His tag (N, cleaved yes); TEV cleavage site (N); made in house; host or cells: SF21 insect cells (baculovirus, pFastBac); settings: MET 5 nM, 10 μM ATP
Outline: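 Purified human MET cytoplasmic domain (956-1390, His tag cleaved), 5 nM, with compound (0.17 nM–10 μM, 3% DMSO) in MOPS pH 7.4; 1 μg/ml poly-(GAT), 10 μM ATP, 5 mM MgCl2, 10 min at ambient temperature. HTRF read-out (streptavidin-XL/anti-pTyr Eu cryptate, 2 h); % inhibition from 665/620 ratios.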
Target sequence in this assay (P08581 956-1390): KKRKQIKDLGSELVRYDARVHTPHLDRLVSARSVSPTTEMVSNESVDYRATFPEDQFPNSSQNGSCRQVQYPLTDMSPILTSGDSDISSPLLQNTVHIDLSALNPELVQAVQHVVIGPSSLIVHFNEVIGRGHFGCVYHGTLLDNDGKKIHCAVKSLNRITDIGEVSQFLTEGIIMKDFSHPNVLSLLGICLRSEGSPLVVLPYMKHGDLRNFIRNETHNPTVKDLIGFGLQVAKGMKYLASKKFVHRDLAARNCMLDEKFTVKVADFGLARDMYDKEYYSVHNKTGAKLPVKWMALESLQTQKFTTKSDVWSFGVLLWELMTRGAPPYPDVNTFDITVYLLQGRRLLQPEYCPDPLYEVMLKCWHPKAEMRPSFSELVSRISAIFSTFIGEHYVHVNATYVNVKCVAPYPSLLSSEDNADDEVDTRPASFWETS

IC50 (MET [1]) | IC50 [2] | IC50 (MET [3]) | melting point | SMILES
100 to 500 nM | < 1000 nM | < 100 nM |  | O=C(Nc1nc2ccc(Sc3nnc4ccc(-c5ccc(F)cc5)nn34)cc2s1)N1CCOCC1 [Example 55, N-(6-{[6-(4-Fluorophenyl)[1,2,4]triazolo[4,3-b]pyridazin-3-yl]sulphanyl}-1,3-benzothiazol-2-yl)morpholine-4-carboxamide]
< 100 nM | < 1000 nM | < 100 nM |  | COCCNc1ccc2nnc(Sc3ccc4nc(NC(=O)OC(C)(C)C)sc4c3)n2n1 [Example 24, 1,1-Dimethylethyl[6-({6-[(2-methoxyethyl)amino][1,2,4]triazolo[4,3-b]pyridazin-3-yl}sulphanyl)-1,3-benzothiazol-2-yl]carbamate]
< 100 nM | < 1000 nM | < 100 nM |  | O=C(NCCN1CCOCC1)Nc1nc2ccc(Sc3nnc4ccc(-c5ccc(F)cc5)nn34)cc2[nH]1 [Example 6, 1-(6-{[6-(4-Fluorophenyl)[1,2,4]triazolo[4,3-b]pyridazin-3-yl]sulphanyl}-1H-benzimidazol-2-yl)-3-(2-morpholin-4-ylethyl)urea]
< 100 nM | < 1000 nM | < 100 nM |  | CC(C)(C)OC(=O)Nc1nc2ccc(Sc3nnc4ccc(N5CCOCC5)nn34)cc2s1 [Example 16, 1,1-Dimethylethyl (6-{[6-(morpholin-4-yl)[1,2,4]triazolo[4,3-b]pyridazin-3-yl]sulphanyl}-1,3-benzothiazol-2-yl)carbamate]
100 to 500 nM | < 1000 nM | < 100 nM |  | CC(C)C(=O)Nc1nc2ccc(Sc3nnc4ccc(-c5ccc(F)cc5)nn34)cc2s1 [Example 66, N-(6-{[6-(4-Fluorophenyl)[1,2,4]triazolo[4,3-b]pyridazin-3-yl]sulphanyl}-1,3-benzothiazol-2-yl)-2-methylpropanamide]
< 100 nM | < 1000 nM | < 100 nM |  | O=C(Nc1nc2ccc(Sc3nnc4n3N=C(c3ccc(F)cc3)CC4)cc2s1)C1CC1 [Example 61, N-(6-{[6-(4-Fluorophenyl)-7,8-dihydro[1,2,4]triazolo[4,3-b]pyridazin-3-yl]sulphanyl}-1,3-benzothiazol-2-yl)cyclopropanecarboxamide]
< 100 nM | < 1000 nM | < 100 nM |  | COc1ccc2nnc(Sc3ccc4nc(NC(=O)NCCN5CCCC5)sc4c3)n2n1 [Example 49, 1-{6-[(6-Methoxy[1,2,4]triazolo[4,3-b]pyridazin-3-yl)sulphanyl]-1,3-benzothiazol-2-yl}-3-[2-(pyrrolidin-1-yl)ethyl]urea]
< 100 nM | < 1000 nM | < 100 nM |  | O=C(Nc1nc2ccc(Sc3nnc4ccc(-c5ccc(F)cc5)nn34)cc2s1)OCCN1CCOCC1 [Example 12, 2-Morpholin-4-ylethyl (6-{[6-(4-fluorophenyl)[1,2,4]triazolo[4,3-b]pyridazin-3-yl]sulphanyl}-1,3-benzothiazol-2-yl)carbamate]
< 100 nM | < 1000 nM | < 100 nM |  | CC(CO)(CCl)COc1ccc2nnc(Sc3ccc4nc(NC(=O)OC(C)(C)C)sc4c3)n2n1 (stereo not shown) [Example 52, 2-Methylpropan-2-yl[6-({6-[3-chloro-2-(hydroxymethyl)-2-methylpropoxy]-[1,2,4]triazolo[4,3-b]pyridazin-3-yl}sulphanyl)-1,3-benzothiazol-2-yl]carbamate]
100 to 500 nM | < 1000 nM | < 100 nM |  | CC(C)(C)OC(=O)Nc1nc2ccc(Sc3nnc4ccc(-n5ccnc5)nn34)cc2s1 [Example 22, 1,1-Dimethylethyl (6-{[6-(1H-imidazol-1-yl)[1,2,4]triazolo[4,3-b]pyridazin-3-yl]sulphanyl}-1,3-benzothiazol-2-yl)carbamate]
> 500 nM | < 10000 nM | < 500 nM | 220 °C | CCC(C)CNc1nc2ccc(Sc3nnc4n3N=C(c3ccc(F)cc3)CC4)cc2s1 (stereo not shown) [Example 68, 6-{[6-(4-Fluorophenyl)-7,8-dihydro[1,2,4]triazolo[4,3-b]pyridazin-3-yl]sulphanyl}-N-(2-methylbutyl)-1,3-benzothiazol-2-amine]
< 100 nM | < 1000 nM | < 100 nM |  | CCOc1ccc2nnc(Sc3ccc4nc(NC(=O)NC5CC5)sc4c3)n2n1 [Example 59, 1-cyclopropyl-3-{6-[(6-ethoxy[1,2,4]triazolo[4,3-b]pyridazin-3-yl)sulphanyl]-1,3-benzothiazol-2-yl}urea]
< 100 nM | < 1000 nM | < 100 nM |  | O=C(Nc1nc2ccc(Sc3nnc4ccc(-c5ccc(F)cc5)nn34)cc2s1)C1CC1 [Example 60, N-(6-{[6-(4-Fluorophenyl)[1,2,4]triazolo[4,3-b]pyridazin-3-yl]sulphanyl}-1,3-benzothiazol-2-yl)cyclopropanecarboxamide]
< 100 nM | < 1000 nM | < 100 nM |  | CCOC1=Nn2c(nnc2Sc2ccc3nc(NC(=O)NCCN4CCOCC4)sc3c2)CC1 [Example 38, 1-{6-[(6-Ethoxy-7,8-dihydro[1,2,4]triazolo[4,3-b]pyridazin-3-yl)sulphanyl]-1,3-benzothiazol-2-yl}-3-[2-(morpholin-4-yl)ethyl]urea]
< 100 nM | < 10000 nM | < 100 nM |  | O=C(NCCN1CCOCC1)Nc1nc2ccc(Sc3nnc4ccc(OCC5CCO5)nn34)cc2s1 (stereo not shown) [Example 34, 1-[2-(Morpholin-4-yl)ethyl]-3-(6-{[6-(oxetan-2-ylmethoxy)[1,2,4]triazolo[4,3-b]pyridazin-3-yl]sulphanyl}-1,3-benzothiazol-2-yl)urea]
